Reference: patent US10570184B2, “GLP-1/glucagon receptor co-agonists for medical use” (Novo Nordisk A/S, priority 2014, dated 2020)
Starred links: 1 amine or outer side, 2 acyl side, 3 side chain; linkers in the order of their positions; H or OH if unused. Non-standard residues stand in square brackets, D forms with d. Residues, ends and D or L forms follow the SMILES beside them. Groups on a side chain read outwards from the residue. *: point of attachment. C18 diacid = O=C(O)CCCCCCCCCCCCCCCCC(=O)*; γGlu = O=C(O)[C@H](CCC(=O)[*:2])N[*:1]; AEEA = NCCOCCOCC(=O)O; Aib = CC(C)(N)C(=O)O

How the values were obtained:
[1] = Assay (III) ThT fibrillation assay for physical stability; assay type: physicochemical; settings: 250 μM in 10 mM HEPES buffer, 37° C., shaking 960 rpm
Text: The purpose of this assay is to assess the physical stability of the glucagon derivatives of the invention in aqueous solutions. Low physical stability of a peptide may lead to amyloid fibril formation, which is observed as well-ordered, thread-like macromolecular structures in the sample, which eventually may lead to gel formation. This has traditionally been measured by visual inspection of the sample. However, that kind of measurement is very subjective and depending on the observer. Therefore, the application of a small molecule indicator probe is much more advantageous. Thioflavin T (ThT) is such a probe and has a distinct fluorescence signature when binding to fibrils [Naiki et al. (1989) Anal. Biochem. 177, 244-249; LeVine (1999) Methods. Enzymol. 309, 274-284]. […] The constant t0 is the time needed to reach 50% of maximum fluorescence. The two important parameters describing fibril formation are the lag-time calculated by t0−2τ and the apparent rate constant kapp 1/τ. Samples were prepared freshly before each assay. Each sample composition is described in the legends. The pH of the sample was adjusted to the desired value using appropriate amounts of concentrated NaOH and HCl. Thioflavin T was added to the samples from a stock solution in H2O to a final concentration of 1 μM. Sample aliquots of 200 μl (250 μM of the glucagon derivative in 10 mM HEPES buffer, pH 7.5) were placed in a 96 well microtiter plate (Packard OptiPlate™-96, white polystyrene). Usually, four or eight replica of each sample (corresponding to one test condition) were placed in one column of wells. The plate was sealed with Scotch Pad (Qiagen). Incubation at given temperature, shaking and measurement of the ThT fluorescence emission were done in a Fluoroskan Ascent FL fluorescence platereader (Thermo Labsystems). The temperature was adjusted to 37° C. The plate was incubated with orbital shaking adjusted to 960 rpm with an amplitude of 1 mm. Fluorescence measurement was done using excitation through a 444 nm filter and measurement of emission through a 485 nm filter. Each run was initiated by incubating the plate at the assay temperature for 10 min. The plate was measured every 20 minutes for a desired period of time. Between each measurement, the plate was shaken and heated as described. After completion of the ThT assay the four or eight replica of each sample was pooled and centrifuged at 20000 rpm for 30 minutes at 18° C. The supernatant was filtered through a 0.22 μm filter and an aliquot was transferred to a HPLC vial. The concentration of peptide in the initial sample and in the filtered supernatant was determined by reverse phase HPLC using an appropriate standard as reference. The percentage fraction the concentration of the filtered sample constituted of the initial sample concentration was reported as the recovery. The measurement points were saved in Microsoft Excel format for further processing and curve drawing and fitting was performed using GraphPad Prism. The background emission from ThT in the absence of fibrils was negligible. The data points are typically a mean of four or eight samples and shown with standard deviation error bars. Only data obtained in the same experiment (i.e. samples on the same plate) are presented in the same graph ensuring a relative measure of fibrillation between experiments. The data set may be fitted to Eq. (1).

human GLP-1 receptor [2] = biological target: T1, human GLP-1 receptor (Homo sapiens, UniProt P43220); assay: Assay (II)(a) GLP-1 receptor binding, 125I-GLP-1 displacement SPA on BHK membranes; settings: without presence of serum albumin; read-out: GLP-1R IC50 (nM) [Assay (II)(a)]
T1 construct: expressed in transfected cells; host or cells: membranes of BHK cells (parent BHKTS13), clone FCW467-12A
Summary of the method: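 Membranes from BHK cells (clone FCW467-12A) stably expressing human GLP-1R were incubated with serially diluted compounds (8×10EE-13 to 8×10EE-7 M before addition) and [125I]-GLP-1-(7-36)NH2 with WGA SPA beads, 2 h at 30° C, pH 7.4. IC50 taken from displacement by non-linear regression. Run at ≤0.001% or 2.0% final serum albumin.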

human GLP-1 receptor [3] = biological target: T1, human GLP-1 receptor; assay: Assay (I)(a) GLP-1 receptor activation, CRE luciferase reporter gene assay in BHK cells; assay type: cell-based; settings: without presence of serum albumin; read-out: GLP-1R EC50 (pM) [Assay (I)(a)]
Summary of the method: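 Stable BHK clone expressing human GLP-1 receptor with CRE-driven firefly luciferase, 5×10EE3 cells/well in medium with 2% ovalbumin and 0.2% Pluronic F-68. Compounds at 1×10EE-13 to 1×10EE-6 M final, 3 h at 37° C.; luminescence read, EC50 (pM) from four-parameter fit.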

T1 sequence (P43220 24-463): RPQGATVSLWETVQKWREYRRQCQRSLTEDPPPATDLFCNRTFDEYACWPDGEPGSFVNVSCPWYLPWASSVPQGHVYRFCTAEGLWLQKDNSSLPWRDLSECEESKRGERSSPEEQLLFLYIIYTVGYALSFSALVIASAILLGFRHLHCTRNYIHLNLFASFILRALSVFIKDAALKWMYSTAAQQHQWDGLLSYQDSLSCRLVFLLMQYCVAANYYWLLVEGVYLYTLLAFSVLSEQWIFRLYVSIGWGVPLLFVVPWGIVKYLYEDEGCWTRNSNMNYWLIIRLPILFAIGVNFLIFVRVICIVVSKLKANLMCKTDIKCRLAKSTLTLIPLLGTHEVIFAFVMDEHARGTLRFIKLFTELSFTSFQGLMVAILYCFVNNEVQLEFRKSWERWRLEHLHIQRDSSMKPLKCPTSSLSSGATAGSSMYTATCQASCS

ThT Assay Lag time (h) [Assay (III), pH 7.5] [1] [h] | IC50 (human GLP-1 receptor [2]) [nM] | EC50 (human GLP-1 receptor [3]) [pM] | SMILES
45.0 | 2.2 | – | CC[C@H](C)[C@H](NC(=O)[C@H](CC(C)C)NC(=O)[C@H](Cc1c[nH]c2ccccc12)NC(=O)[C@H](C)NC(=O)[C@@H](NC(=O)[C@H](Cc1ccccc1)NC(=O)[C@H](CC(=O)O)NC(=O)[C@H](CCC(N)=O)NC(=O)[C@H](C)NC(=O)[C@H](CCCNC(=N)N)NC(=O)[C@H](CCCNC(=N)N)NC(=O)[C@H](CO)NC(=O)[C@H](CCC(=O)O)NC(=O)[C@H](CC(C)C)NC(=O)[C@H](Cc1ccc(O)cc1)NC(=O)[C@H](CCCCN)NC(=O)[C@H](CO)NC(=O)[C@H](Cc1ccc(O)cc1)NC(=O)[C@H](CC(=O)O)NC(=O)[C@H](CO)NC(=O)[C@@H](NC(=O)[C@H](Cc1ccccc1)NC(=O)[C@@H](NC(=O)CNC(=O)[C@H](CCC(N)=O)NC(=O)C(C)(C)NC(=O)[C@@H](N)Cc1c[nH]cn1)[C@@H](C)O)[C@@H](C)O)C(C)C)C(=O)N[C@@H](CO)C(=O)N[C@@H](CCCCNC(=O)CC[C@H](NC(=O)CC[C@H](NC(=O)COCCOCCNC(=O)COCCOCCNC(=O)CC[C@H](NC(=O)CCCCCCCCCCCCCCCCC(=O)O)C(=O)O)C(=O)O)C(=O)O)C(N)=O [Chem. 35, N^ε29-[(4S)-4-carboxy-4-[[(4S)-4-carboxy-4-[[2-[2-[2-[[2-[2-[2-[[(4S)-4-carboxy-4-(17-carboxyheptadecanoylamino)butanoyl]amino]ethoxy]ethoxy]acetyl]amino]ethoxy]ethoxy]acetyl]amino]butanoyl]amino]butanoyl]-[Aib2,Glu15,Ala24,Ile27,Ser28,Lys29]-Glucagon amide] (H-H[Aib]QGTFTSDYSKYLESRRAQDFVAWLISK([γGlu-γGlu-AEEA-AEEA-γGlu-C18 diacid])-NH2)
45.0 | – | 7 | CC[C@H](C)[C@H](NC(=O)[C@H](CC(C)C)NC(=O)[C@H](Cc1c[nH]c2ccccc12)NC(=O)[C@H](C)NC(=O)[C@@H](NC(=O)[C@H](Cc1ccccc1)NC(=O)[C@H](CC(=O)O)NC(=O)[C@H](CCCNC(=N)N)NC(=O)[C@H](C)NC(=O)[C@H](CCCNC(=N)N)NC(=O)[C@H](CCCNC(=N)N)NC(=O)[C@H](CC(C)C)NC(=O)[C@H](CC(=O)O)NC(=O)[C@H](CC(C)C)NC(=O)[C@H](Cc1ccc(O)cc1)NC(=O)[C@H](CCCCN)NC(=O)[C@H](CO)NC(=O)[C@H](Cc1ccc(O)cc1)NC(=O)[C@H](CC(=O)O)NC(=O)[C@H](CO)NC(=O)[C@@H](NC(=O)[C@H](Cc1ccccc1)NC(=O)[C@@H](NC(=O)CNC(=O)[C@H](CCC(N)=O)NC(=O)C(C)(C)NC(=O)[C@@H](N)Cc1c[nH]cn1)[C@@H](C)O)[C@@H](C)O)C(C)C)C(=O)N[C@@H](CCCCNC(=O)CC[C@H](NC(=O)CC[C@H](NC(=O)COCCOCCNC(=O)COCCOCCNC(=O)CC[C@H](NC(=O)CCCCCCCCCCCCCCCCC(=O)O)C(=O)O)C(=O)O)C(=O)O)C(=O)N[C@H](C(N)=O)[C@@H](C)O [Chem. 33, N^ε28-[(4S)-4-carboxy-4-[[(4S)-4-carboxy-4-[[2-[2-[2-[[2-[2-[2-[[(4S)-4-carboxy-4-(17-carboxyheptadecanoylamino)butanoyl]amino]ethoxy]ethoxy]acetyl]amino]ethoxy]ethoxy]acetyl]amino]butanoyl]amino]butanoyl]-[Aib2,Leu16,Arg20,Ala24,Ile27,Lys28]-Glucagon amide] (H-H[Aib]QGTFTSDYSKYLDLRRARDFVAWLIK([γGlu-γGlu-AEEA-AEEA-γGlu-C18 diacid])T-NH2)
45.0 | 0.3 | – | CC[C@H](C)[C@H](NC(=O)[C@H](CC(C)C)NC(=O)[C@H](Cc1c[nH]c2ccccc12)NC(=O)[C@H](CCC(N)=O)NC(=O)[C@@H](NC(=O)[C@H](Cc1ccccc1)NC(=O)[C@H](CC(=O)O)NC(=O)[C@H](CCCNC(=N)N)NC(=O)[C@H](C)NC(=O)[C@H](CCCNC(=N)N)NC(=O)[C@H](CCCNC(=N)N)NC(=O)[C@H](CC(C)C)NC(=O)[C@H](CC(=O)O)NC(=O)[C@H](CC(C)C)NC(=O)[C@H](Cc1ccc(O)cc1)NC(=O)[C@H](CCCCN)NC(=O)[C@H](CO)NC(=O)[C@H](CC(C)C)NC(=O)[C@H](CC(=O)O)NC(=O)[C@H](CO)NC(=O)[C@@H](NC(=O)[C@H](Cc1ccccc1)NC(=O)[C@@H](NC(=O)CNC(=O)[C@H](CCC(N)=O)NC(=O)C(C)(C)NC(=O)[C@@H](N)Cc1c[nH]cn1)[C@@H](C)O)[C@@H](C)O)C(C)C)C(=O)N[C@@H](CC(N)=O)C(=O)N[C@@H](CCCCNC(=O)CC[C@H](NC(=O)CC[C@H](NC(=O)COCCOCCNC(=O)COCCOCCNC(=O)CC[C@H](NC(=O)CCCCCCCCCCCCCCCCC(=O)O)C(=O)O)C(=O)O)C(=O)O)C(N)=O [Chem. 23, N^ε29-[(4S)-4-carboxy-4-[[(4S)-4-carboxy-4-[[2-[2-[2-[[2-[2-[2-[[(4S)-4-carboxy-4-(17-carboxyheptadecanoylamino)butanoyl]amino]ethoxy]ethoxy]acetyl]amino]ethoxy]ethoxy]acetyl]amino]butanoyl]amino]butanoyl]-[Aib2,Leu10,Leu16,Arg20,Ile27,Lys29]-Glucagon amide] (H-H[Aib]QGTFTSDLSKYLDLRRARDFVQWLINK([γGlu-γGlu-AEEA-AEEA-γGlu-C18 diacid])-NH2; N-terminus assumed)
